Source: patent publication US8278282B2, “Nucleoside analogs for treatment of viral infections” (Novartis AG, priority 2007, dated 2012)
pEC50: −log10 of the molar value.

Columns and labels:
dengue virus serotype 2 = assay: microbe, parasite or virus in culture; format: cell-based
HCV replicon = assay: Cell-based HCV replicon assay; conditions: Hepatitis C virus
dengue virus serotype 1 = assay: microbe, parasite or virus in culture; format: cell-based
TSV01 dengue virus 2 = assay: Mouse model of dengue infection (viremia by plaque assay); conditions: 25 mg/kg bid, compared to the control group
West Nile virus = assay: microbe, parasite or virus in culture; format: cell-based
yellow fever virus = assay: microbe, parasite or virus in culture; format: cell-based
[1] = tested on: Japanese encephalitis virus; assay: microbe, parasite or virus in culture; format: cell-based
dengue virus serotype 4 = assay: microbe, parasite or virus in culture; format: cell-based

SMILES	pEC50 (dengue virus serotype 2)	pEC50 (HCV replicon)	pEC50 (dengue virus serotype 1)	reduction in viremia (TSV01 dengue virus 2)	pEC50 (West Nile virus)	pEC50 (yellow fever virus)	pEC50 [1]	pEC50 (dengue virus serotype 4)
C#Cc1cn([C@@H]2O[C@H](CO)[C@@H](O)[C@]2(O)C#C)c2ncnc(N)c12 [Example 8, (2R,3R,4R,5R)-2-(4-Amino-5-ethynyl-pyrrolo[2,3-d]pyrimidin-7-yl)-3-ethynyl-5-hydroxymethyl-tetrahydro-furan-3,4-diol]	~6.22							
C#C[C@@]1(O)[C@H](O)[C@@H](CO)O[C@H]1n1ccc2c(N)ncnc21 [Example 1, (2R,3R,4R,5R)-2-(4-Amino-pyrrolo[2,3-d]pyrimidin-7-yl)-3-ethynyl-5-hydroxymethyl-tetrahydrofuran-3,4-diol]		~7.00	~6.70	about 20 fold	~5.43	~6.05	~5.89	~6.70
C#C[C@@]1(O)[C@H](O)[C@@H](CO)O[C@H]1n1cc(F)c2c(N)ncnc21 [Example 4, (2R,3R,4R,5R)-2-(4-Amino-5-fluoro-pyrrolo[2,3-d]pyrimidin-7-yl)-3-ethynyl-5-hydroxymethyl-tetrahydrofuran-3,4-diol]	~6.40							
